Measured values from publication PMC3883446 (Bioorganic & medicinal chemistry letters, 2012).
Like-named read-outs stand apart in the source and are kept apart here. One block for each compound: values may come before it.

Legend:
hM1 = molecular target: T1, hM1 (Homo sapiens, UniProt P11229); test: hM1 antagonist potency, calcium mobilization assay; assay type: cell-based; conditions: for % ACh activity remaining: at the highest concentration tested (30 μM)
T1 sequence (P11229 1-460): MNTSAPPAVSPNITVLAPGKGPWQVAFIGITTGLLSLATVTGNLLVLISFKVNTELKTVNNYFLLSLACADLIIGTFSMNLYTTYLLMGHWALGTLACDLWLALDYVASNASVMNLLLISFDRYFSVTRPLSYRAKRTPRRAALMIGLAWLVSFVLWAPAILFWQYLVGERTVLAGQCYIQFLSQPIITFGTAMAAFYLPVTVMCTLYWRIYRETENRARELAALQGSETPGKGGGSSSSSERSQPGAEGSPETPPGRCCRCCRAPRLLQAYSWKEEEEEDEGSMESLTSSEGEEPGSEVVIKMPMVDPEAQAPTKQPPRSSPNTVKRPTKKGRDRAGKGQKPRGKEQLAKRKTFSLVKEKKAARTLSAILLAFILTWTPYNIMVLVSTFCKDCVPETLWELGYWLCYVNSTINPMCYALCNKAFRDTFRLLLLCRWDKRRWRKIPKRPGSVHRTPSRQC

M1 = molecular target: T2, M1 (Homo sapiens, UniProt P11229); assay type: cell-based; conditions: antagonism of ACh at M1; mean ± S.E.M. of three experiments in triplicate
T2 sequence (P11229 1-460): T1 sequence (P11229 1-460)

M1 mAChR = test: equilibrium radioligand binding, [3H]NMS competition; conditions: Figure 4A
rat (r) M1-5 receptors = test: calcium mobilization assay, rat M1-5 selectivity; assay type: cell-based; conditions: CRCs in the presence of an EC80 concentration of ACh; Figure 5
[1] = in vitro hepatic microsome intrinsic clearance; assay type: in vitro ADME, rat
[2] = system: contextual fear conditioning; conditions: at doses that reduced seizures; cited from earlier work
[3] = system: pilocarpine-induced seizures; conditions: rodents; cited from earlier work

SMILES: O=C(C1CN(S(=O)(=O)c2cccc3nsnc23)C1)N1CCN(c2ccncc2)CC1 [2d]
fold less active / less potent than ML012 (hM1; hM1, relative to ML012): 3 fold

SMILES: O=C(C1CN(S(=O)(=O)c2cccc3nonc23)C1)N1CCN(c2ccccn2)CC1 [(1-(Benzo[c][1,2,5]oxadiazol-4-ylsulfonyl)azetidin-3-yl)(4-(pyridin-2-yl)piperazin-1-yl)methanone]
IC50 (hM1): 5000 nM

SMILES: Brc1ccc(N2CCNCC2)nc1 [(5-bromopyridin-2-yl)piperazine]
IC50 (hM1; read-out: hM1 IC50): 280 nM

SMILES: O=C(CCNS(=O)(=O)c1cccc2nsnc12)N1CCN(c2ccncc2)CC1 [ML012]
impact on contextual fear conditioning [2]: no negative impact on contextual fear conditioning
effect on pilocarpine-induced seizures [3]: reduced pilocarpine-induced seizures

SMILES: CN1[C@@H]2CC[C@H]1C[C@@H](OC(=O)C(CO)c1ccccc1)C2 (stereo partly drawn) [atropine, reference compound]
displacement of the orthosteric ligand [3H]NMS (M1 mAChR): compete with [^3H]NMS binding at M1

Continued, in another order:

% ACh activity remaining (hM1; hM1): 38%
SMILES: Cc1ccnc(S(=O)(=O)N2CC(C(=O)N3CCN(c4ccncc4)CC3)C2)c1 [7e]

% ACh activity remaining (hM1; hM1): 41%
SMILES: O=C(C1CN(S(=O)(=O)c2ccc(Cl)cn2)C1)N1CCN(c2ccncc2)CC1 [7f]

displacement of the orthosteric ligand [3H]NMS (M1 mAChR): complete displacement
SMILES: O=C(C1CN(S(=O)(=O)c2ccc3c(c2)OCO3)C1)N1CCN(c2ccncc2)CC1 [7o]
slope of Schild regression (M1): 0.96 ± 0.02

% ACh activity remaining (hM1; hM1): 20%
SMILES: COc1ccc(S(=O)(=O)N2CC(C(=O)N3CCN(c4ccncc4)CC3)C2)cn1 [7t]

% ACh activity remaining (hM1; hM1): 40%
SMILES: O=C(C1CN(S(=O)(=O)c2ccc(C(F)(F)F)nc2)C1)N1CCN(c2ccncc2)CC1 [7u]

fold increase in potency (hM1; hM1, relative to ML012): 8 fold
SMILES: O=C(C1CN(S(=O)(=O)c2ccc3c(c2)CCO3)C1)N1CCN(c2ccncc2)CC1 [7v]

selectivity at rat M1 compared to M2-5 (rat (r) M1-5 receptors): selectively antagonize M1
predicted hepatic clearance (CLHEP) ([1]; predicted from microsome intrinsic clearance): 42.3 mL/min/kg
CLint scaled ([1]; rat, hepatic microsomes): 107 mL/min/kg
displacement of the orthosteric ligand [3H]NMS (M1 mAChR): complete displacement
SMILES: O=C(C1CN(S(=O)(=O)c2cccc3cnccc23)C1)N1CC2CN(c3ccncc3)CC2C1 (stereo not drawn) [12a]
slope of Schild regression (M1): 0.94 ± 0.01
